Results taken from ChEMBL document CHEMBL3632499, “Synthesis and Antiproliferative Activity Evaluation of the Disulfide-Containing Cyclic Peptide Thiochondrilline C and Derivatives” (J Nat Prod, 2015).

Tested on: A549
Test: Antiproliferative activity against human A549 cells assessed as growth inhibition at 10 uM
Format: functional
Conditions: read-out: GI

Row | SMILES | inhibition of growth at 10 µM [%]
1 | CN1C(=O)CNC(=O)[C@H](NC(=O)c2nc3ccccc3cc2O)CSSC[C@H]1C(=O)O | < 30
2 | COC(=O)[C@H](C)N(C)C(=O)[C@@H]1CSSC[C@@H](NC(=O)c2nc3ccccc3cc2O)C(=O)NCC(=O)N1C | < 30
